Experimental data taken from patent US12171793B2, “Method of activating lactic acid bacteria” (INFANT BACTERIAL THERAPEUTICS AB, priority 2015, dated 2024).
“Also recorded” adds a separate entry of the source.

Columns and labels:
[1] = test system: Lactobacillus reuteri DSM 17938; experiment: Evaluation of activation time by turbidity (BioScreen) in simulated intestinal medium STMmod 3; assay type: cell-based; settings: STMmod 3, 37° C., OD 600 nm; with citrate compared to without citrate; FIG. 3
Protocol: The activation time in simulated intestinal medium (STMmod 3, see Table 4) of the two variants of lyophilized DSM 17938 (C and N) were analyzed using a computer-controlled incubator/reader/shaker (BioScreen C MBR) that measure the change in turbidity over time. The medium STMmod 3 was used to mimic the conditions in the intestine. To each well 200 μl of STMmod 3 was added. Thereafter different volumes (100, 60, 40, 30, 25 μl) of bacterial suspension (vials with lyophilized bacteria suspended in 1 ml dH2O) were added. Volumes were adjusted to 300 μl with dH2O. The analysis of each inoculation volume was done in triplicates. The BioScreen analysis was run at 37° C. for 24 hours with a 15 min interval between measurements (OD 600 nm), with the addition of a 10 s shaking step before each measuring point. [table]

[2] = test system: Lactobacillus reuteri DSM 17938; experiment: Growth of Lactobacillus reuteri in simulated intestinal substrate (SIS); assay type: cell-based; settings: FIG. 1; GOS or glucose plus electron acceptor, 15 mM of each; 16 h at 37° C., anaerobic
Protocol: The growth of L. reuteri DSM 17938 on different combinations of sugar and electron acceptors was evaluated in “Simulated intestinal substrate” (SIS). [table] Lactobacillus reuteri cells of strain DSM 17938 were first grown over night in MRS broth (Oxoid) at 37° C. After washing in phosphate-buffered saline (PBS) the bacteria were diluted 10 × in PBS. 10 μl of bacterial suspension was thereafter inoculated to 10 ml SIS (with addition of sugar and electron acceptor), and the bacteria were cultivated for 16 h at 37° C. during anaerobic conditions and no shaking. The growth of Lactobacillus reuteri DSM 17938 in SIS with lactose and citrate as the sugar-electron acceptor pair is evaluated in the same way as described above for GOS and citrate as the electron acceptor. The above described substrate (SIS) is used.

Compound: O=C(O)CC(O)(CC(=O)O)C(=O)O [Citrate]
- time to reach a 3% increase in OD (activation time) [1]: shorter time; also recorded: shorten the activation time
- growth of Lactobacillus reuteri DSM 17938 in simulated intestinal substrate [2]: highest effect
